Measured values taken from PMC3410885, “6-Arylpyrido[2,3-d]pyrimidines as Novel ATP-Competitive Inhibitors of Bacterial D-Alanine:D-Alanine Ligase” (PLoS ONE, 2012).
Values after ≈ are worked out from the molar mass of the structure shown.

Key:
E. coli DdlB [1] = molecular target: T1, E. coli DdlB (Escherichia coli, UniProt P07862); assay: Colorimetric malachite green inhibition assay of DdlB; assay type: biochemical; details: for Ki: against ATP (50-500 μM), D-Ala 10 mM, competitive model; for mode of inhibition of DdlB: kinetic analysis at different inhibitor and ATP concentrations; for IC50: malachite green assay, 700 μM D-Ala, 500 μM ATP, 37°C, 20 min, read-out: inhibitory activity on DdlB: IC50
T1 construct: polyhistidine (His) tag (N); made in house; host or cells: E. coli BL21(λDE3), vector pQE-30 UA (Qiagen)
Experimental: All of the synthesized 6-arylpyrido[2,3-d]pyrimidines 11–36 were assayed for in vitro inhibitory activity on E. coli DdlB by detecting orthophosphate generated during the enzymatic reaction using a Malachite green assay.
Inhibition of DdlB was measured at different inhibitor and ATP concentrations in order to determine Ki values and the mode-of-action of both compounds.
The target compounds were tested for their ability to inhibit the D-Ala-adding activity of DdlB ligase with the colorimetric malachite green method in which orthophosphate generated during the reaction is measured. Each compound was tested in duplicate at 100, 250 or 500 μM in a mixture, final volume 50 μL, containing 50 mM Hepes (pH 8.0), 5 mM MgCl2, 10 mM (NH4)2SO4, 10 mM KCl, 700 μM D-Ala, 500 μM ATP, purified His-tagged DdlB (diluted in 50 mM Hepes (pH 7.2) and 1 mM DTT) and the test compound dissolved in DMSO. The final concentration of DMSO was 5% (v/v). The reaction mixture was incubated at 37°C for 20 min, then quenched with 100 μL of Biomol reagent and absorbance at 650 nm was measured after 5 min. To exclude possible promiscuous inhibitors, all compounds were tested in the presence of Triton-114 (0.005%). Residual activities were calculated relative to control assays without the compounds and with DMSO.

DdlB = molecular target: T2, DdlB (Escherichia coli, UniProt P07862); assay: Surface plasmon resonance binding to immobilised DdlB; details: steady-state affinity model; 25°C; 50 mM Hepes, 150 mM NaCl, 5% DMSO; read-out: KD (SPR)
T2 construct: polyhistidine (His) tag (N); made in house; host or cells: E. coli BL21(λDE3), vector pQE-30 UA (Qiagen)
Experimental: The binding of the compounds 11, 13, 14, 24, 27, 33, and 35 to the target enzyme was confirmed using surface plasmon resonance (SPR) (Figure 10). Experiments were performed at conditions that enable long term stability of the enzyme. […] The enzyme was covalently attached to the surface of a sensor chip CM5 and compounds were titrated over the surface. The binding of all the compounds was characterised by fast association and dissociation rates. Equilibrium affinity constants, estimated from the steady-state binding levels are in agreement with enzymatic studies and ITC. In addition, the binding of other compounds was tested but insufficient solubility at higher concentrations of analytes in the running buffer precluded analysis.
Figure 10 SPR analysis of compounds binding to DdlB. Different concentrations of compounds were tested for the binding (left panels in all cases). The binding curves (right panels) were generated by ploting steady-state response levels, i.e. at the end of the association phase, vs concentration of the injected compound. For each compound 3–5 independent titrations were performed.
The binding constants were obtained by using a Biacore T100 (Biacore, GE Healthcare, USA). […] Two 1 min injections of 50 μg/ml DdlB diluted in 10 mM Na-acetate, pH 4.0 were applied on the second flow cell. The first flow cell was left unmodified and served as a control for non-specific binding of tested compounds. The remaining active groups on the surface of both flow cells were deactivated with a 7-min injection of ethanolamine. The level of immobilized enzyme was around 10000 response units.
Each analyte was titrated, with 3 or 4 repetitions, using different concentrations according to their solubility in running buffer (50 mM Hepes, 150 mM NaCl, 5% DMSO, pH 7.4), usually from 0,781 μM to 500 μM. One concentration was repeated at the end of the assay in each dilution series, in order to check the surface stability and repeatability. The association lasted 60 seconds at a flow-rate 30 μl/min. No regeneration was needed. All experiments were performed at 25°C. Sensorgrams were double referenced by subtracting the signal obtained in the empty flow cell and the injection of the buffer. The steady-state response levels were fitted using the Steady State Affinity model in Biacore T100 Evaluation software.

E. coli DdlB [2] = molecular target: T1, E. coli DdlB; assay: Isothermal titration calorimetry of binding to DdlB; details: ITC, 37°C; for entropy contribution of binding ([drawing 6]) / standard Gibbs free energy of binding ([drawing 5]): calculated from the fitted parameters
Experimental: Two of the compounds, 14 and 33, were also tested by ITC to obtain thermodynamic parameters of the binding into DdlB active site. Heat changes upon binding of the ligand on the E. coli DdlB were measured directly, corrected for the heats of dilution, and the model function was fitted to the experimental data points (see the Experimental section).
The value of critical parameter for obtaining highly reliable thermodynamic data ( [drawing 10] ) was not optimal due to low inhibitors solubility and quite low binding constants. Nevertheless, the conclusions below can be drawn. Experiments for the two compounds result in similar binding constants (K b≈10^5 M^−1) (Table 1), but the driving forces for the binding differ (Figure 11). The binding of compound 14 to DdlB results from favourable enthalpy and entropy contributions. […] But still, compensation of the opposing effects at 33 results in similar [drawing 11] (and binding constant) as at 14, although there are less specific interactions between 33 and the protein as at 14.
The heat changes upon binding were measured using a VP-ITC microcalorimeter from MicroCal, LLC (Northampton, MA, USA). Purified DdlB stock solution in 20% glycerol was dialysed for 40 hours at 4°C (50 mM Hepes, pH = 8.0, 10 mM KCl, 10 mM (NH4)2SO4, 5 mM MgCl2, and 0.01% Triton X-114) prior to titration. The ligand solutions were prepared by adding a stock solution of 14 or 33 in DMSO to the dialysis buffer to obtain final 50 μM solution of the DdlB inhibitor in 5% DMSO. Successive aliquots (11–31 μl) of the degassed ligand solution were injected at 5–8 min intervals by a motor driven syringe (300 μl) into the degassed DdlB solution (approximately 2 μM, 5% DMSO) in the calorimeter cell (V = 1.386 ml) with constant stirring (300 rpm) at 37°C. At the end of experiment the final ratio of ligand:enzyme in the titration cell was about 6∶1. The titration data was further corrected for the heat changes observed in the control titration of ligand solution into the dialysis buffer, 5% DMSO, alone. The experimental data was analysed using the Origin 7.0 software provided by MicroCal and fitted by a home written program, based on the non-linear Levenberg–Marquardt χ^2 regression procedure, assuming a single binding site model (two parameter fit): [drawing 12] [drawing 13] where P, L, and PL represent DdlB, ligand, and DdlB-ligand complex, ΔH and [drawing 14] are the measured enthalpy upon aliquot addition and the standard enthalpy change of the binding reaction, [drawing 15] and [drawing 16] represent the total number of moles of ligand and DdlB-ligand complex in the titration cell, r is the bound ligand to total protein concentration,[P]tot, ratio and K b is the binding constant. A detailed explanation of the applied model equation is given in the Information S2.

[3] = system: E. coli strains (1411, AB734, SM1411, ES100); assay: Antibacterial activity stated for the E. coli strains together; assay type: cell-based; details: Escherichia coli; read-out: MICs against all strains
Experimental: (§1) Selected DdlB inhibitors were tested for their antibacterial activity against two E. coli strains E. coli 1411 and E. coli AB734 (Table 2). […] Additionally, growth inhibition of efflux pump-deficient strains SM1411 (acrAB deficient derivative of 1411) and ES100 (tolC deficient derivative of AB734) was measured, and MICs were repeated for each strain in the presence of polymyxin B nonapeptide (PMBN) to assess the impact of outer-membrane permeability on antimicrobial activity.
(§2) Minimum inhibitory concentrations (MICs) were determined by broth microdilution against E. coli 1411, SM1411 (acrAB deficient derivative of 1411), AB734 and ES100 (tolC deficient derivative of AB734) according to CLSI guidelines. MICs were repeated for each strain in the presence of polymyxin B nonapeptide (4 μg/ml) to assess the impact of outer-membrane permeability on antimicrobial activity.

[4] = system: SM1411 (acrAB deficient derivative of 1411); assay: MIC by broth microdilution, SM1411; assay type: cell-based, E. coli
Experimental: as §1, §2

[5] = system: ES100 (tolC deficient derivative of AB734); assay: MIC by broth microdilution, ES100; assay type: cell-based, E. coli
Experimental: as §1, §2

E. coli BC enzyme = details: read-out: IC50 for the E. coli BC enzyme; cited from earlier work
Ddl = molecular target: Ddl; parameters: method as in PMID 14479178; details: read-out: Ki of D-cycloserine on Ddl; cited from earlier work
[6] = with polymyxin B nonapeptide (4 μg/ml)

Row | Compound | Ki (E. coli DdlB [1]) [µM] | mode of inhibition of DdlB (E. coli DdlB [1]) | IC50 (E. coli DdlB [1]) [µM] | fold greater DdlB inhibitory potency than corresponding diamine 13 (E. coli DdlB [1]; ratio of IC50 values, 14 against 13) [fold] | Kd (DdlB) [µM] | Kd (E. coli DdlB [2]) [µM] | standard enthalpy of binding ([drawing 4]) (E. coli DdlB [2]) [kcal/mol] | entropy contribution of binding ([drawing 6]) (E. coli DdlB [2]) [kcal/mol] | standard Gibbs free energy of binding ([drawing 5]) (E. coli DdlB [2]) [kcal/mol] | MIC [3] [µg/mL] | MIC ([4]; Escherichia coli, read-out: MIC SM1411 (acrAB)) [µg/mL] | MIC SM1411 +PMBN [4, 6] | MIC ([5]; Escherichia coli, read-out: MIC ES100 (tolC)) [µg/mL] | MIC ES100 +PMBN [5, 6] | IC50 (E. coli BC enzyme) [µM] | melting point [°C] | Ki (Ddl) [µM]
1 | COc1cc(OC)cc(-c2cc3cnc(N)nc3nc2NC(=O)NC(C)(C)C)c1 [Compound 14, 1-(2-amino-6-(3,5-dimethoxyphenyl)pyrido[2,3-d]pyrimidin-7-yl)-3-tert-butylurea] | 31 ± 4 | ATP competitive inhibitors | 340 | 2.6 | 19 ± 6.6 | 10 | -4 | 3 | -7 | > 256 |  |  |  |  |  |  | 
2 | CC(C)(C)NC(=O)Nc1nc2nc(N)ncc2cc1-c1c(Cl)cccc1Cl [Compound 27, 1-(2-amino-6-(2,6-dichlorophenyl)pyrido[2,3-d]pyrimidin-7-yl)-3-tert-butylurea] |  |  | 655 |  | 16.7 ± 6.5 |  |  |  |  | > 256 |  |  |  |  |  |  | 
3 | Nc1ncc2cc(-c3c(Br)cccc3Br)c(N)nc2n1 [Compound 33, 6-(2,6-dibromophenyl)pyrido[2,3-d]pyrimidine-2,7-diamine] | 38 ± 5 | ATP competitive inhibitors | 453 |  | 161 ± 73.7 | 10 | 4 | 11 | -7 |  | 1 (≈ 2.53 µM) | 0,25 μg/ml | 0.5 (≈ 1.27 µM) | 0,125 μg/ml | < 0.005 |  | 
4 | Nc1ncc2cc(-c3ccc4c(c3)OCO4)c(N)nc2n1 [Compound 35, 6-(benzo[d][1,3]dioxol-5-yl)pyrido[2,3-d]pyrimidine-2,7-diamine] |  |  | 1110 |  | 104 ± 36.2 |  |  |  |  | > 256 |  |  |  |  |  | > 300 | 
5 | N[C@@H]1CON=C1O [D-cycloserine, D-4-amino-3-isoxazolidone, reference compound] |  |  | 296 |  |  |  |  |  |  |  |  |  |  |  |  |  | 27
